Assay results taken from patent US20200237742A1, “Serdexmethylphenidate Conjugates, Compositions And Methods Of Use Thereof” (priority 2018, published 2020).

Test system: healthy, nondependent, recreational stimulant users with intranasal insufflation experience
Experiment: Intranasal study, treatment-emergent adverse events (Table 54)
Protocol: The study consisted of a Screening Period, an in-clinic Drug Discrimination Phase, a Treatment Phase, and a Follow-Up Visit.
All subjects were required to fast for at least 8 hours prior to each dose of study drug until approximately 4 hours after each dose. Abuse potential measures and pharmacokinetic samples were collected at different times after the administration of study drug. Subjects who successfully completed the Drug Discrimination Phase and who qualified for the Treatment Phase remained as inpatients to enter the Treatment Phase.

[1] = intranasal, d-MPH HCl 40 mg, SDX Cl 80 mg, N = 46 each

## COC(=O)[C@H](c1ccccc1)[C@H]1CCCCN1C(=O)OC[n+]1cccc(C(=O)N[C@@H](CO)C(=O)O)c1.[Cl-] [serdexmethylphenidate chloride]
Intranasal SDX Cl compared to intranasal d-MPH HCl
  respiratory, thoracic, and eye disorders (nasal discomfort, nasal congestion, rhinorrhoea, epistaxis, increased lacrimation): occurred more often
[1]
  Abdominal distension, number of occurrences: 1 E
  Abdominal distension, subjects with event: 1 (2.2%) n (%)
  Abdominal pain, number of occurrences: 2 E
  Abdominal pain, subjects with event: 2 (4.3%) n (%)
  Agitation, number of occurrences: 1 E
  Agitation, subjects with event: 1 (2.2%) n (%)
  Anxiety, number of occurrences: 1 E
  Anxiety, subjects with event: 1 (2.2%) n (%)
  Any TEAE, number of occurrences: 102 E
  Any TEAE, subjects with event: 36 (78.3%) n (%)
  Arthralgia, number of occurrences: 1 E
  Arthralgia, subjects with event: 1 (2.2%) n (%)
  Asthenia, number of occurrences: 1 E
  Asthenia, subjects with event: 1 (2.2%) n (%)
  Back pain, subjects with event: 0 n (%)
  Blood pressure diastolic increased, subjects with event: 0 n (%)
  Bruxism, subjects with event: 0 n (%)
  Cardiac disorders, number of occurrences: 2 E
  Cardiac disorders, subjects with event: 2 (4.3%) n (%)
  Catheter site haematoma, number of occurrences: 1 E
  Catheter site haematoma, subjects with event: 1 (2.2%) n (%)
  Catheter site swelling, number of occurrences: 1 E
  Catheter site swelling, subjects with event: 1 (2.2%) n (%)
  Change in sustained attention, subjects with event: 0 n (%)
  Chest discomfort, subjects with event: 0 n (%)
  Chest pain, number of occurrences: 1 E
  Chest pain, subjects with event: 1 (2.2%) n (%)
  Claustrophobia, number of occurrences: 1 E
  Claustrophobia, subjects with event: 1 (2.2%) n (%)
  Cough, number of occurrences: 3 E
  Cough, subjects with event: 3 (6.5%) n (%)
  Decreased appetite, subjects with event: 0 n (%)
  Defaecation urgency, subjects with event: 0 n (%)
  Diarrhoea, number of occurrences: 1 E
  Diarrhoea, subjects with event: 1 (2.2%) n (%)
  Disturbance in attention, number of occurrences: 1 E
  Disturbance in attention, subjects with event: 1 (2.2%) n (%)
  Dizziness, number of occurrences: 1 E
  Dizziness, subjects with event: 1 (2.2%) n (%)
  Dry mouth, subjects with event: 0 n (%)
  Dry throat, subjects with event: 0 n (%)
  Dysgeusia, number of occurrences: 2 E
  Dysgeusia, subjects with event: 2 (4.3%) n (%)
  Dysmenorrhoea (menstrual cramps), subjects with event: 0 n (%)
  Dyspepsia, subjects with event: 0 n (%)
  Ecchymosis (skin discoloration), number of occurrences: 1 E
  Ecchymosis (skin discoloration), subjects with event: 1 (2.2%) n (%)
  Energy increased, subjects with event: 0 n (%)
  Epistaxis (nosebleed), number of occurrences: 3 E
  Epistaxis (nosebleed), subjects with event: 3 (6.5%) n (%)
  Euphoric mood, number of occurrences: 9 E
  Euphoric mood, subjects with event: 9 (19.6%) n (%)
  Eye disorders, number of occurrences: 9 E
  Eye disorders, subjects with event: 8 (17.4%) n (%)
  Eye irritation, subjects with event: 0 n (%)
  Eye pain, number of occurrences: 1 E
  Eye pain, subjects with event: 1 (2.2%) n (%)
  Fatigue, number of occurrences: 1 E
  Fatigue, subjects with event: 1 (2.2%) n (%)
  Feeling hot, subjects with event: 0 n (%)
  Feeling of relaxation, number of occurrences: 2 E
  Feeling of relaxation, subjects with event: 2 (4.3%) n (%)
  Flushing, subjects with event: 0 n (%)
  Gastrointestinal disorders, number of occurrences: 6 E
  Gastrointestinal disorders, subjects with event: 4 (8.7%) n (%)
  General disorders and administration site conditions, number of occurrences: 7 E
  General disorders and administration site conditions, subjects with event: 6 (13.0%) n (%)
  Haematoma, subjects with event: 0 n (%)
  Head discomfort, number of occurrences: 1 E
  Head discomfort, subjects with event: 1 (2.2%) n (%)
  Headache, number of occurrences: 6 E
  Headache, subjects with event: 5 (10.9%) n (%)
  Hyperhidrosis, number of occurrences: 2 E
  Hyperhidrosis, subjects with event: 2 (4.3%) n (%)
  Hypervigilance, number of occurrences: 6 E
  Hypervigilance, subjects with event: 6 (13.0%) n (%)
  Hypopnoea (shallow breathing), subjects with event: 0 n (%)
  Infections and infestations, subjects with event: 0 n (%)
  Investigations, subjects with event: 0 n (%)
  Irritability, number of occurrences: 1 E
  Irritability, subjects with event: 1 (2.2%) n (%)
  Lacrimation increased, number of occurrences: 8 E
  Lacrimation increased, subjects with event: 8 (17.4%) n (%)
  Metabolism and nutrition disorders, subjects with event: 0 n (%)
  Muscle tightness, subjects with event: 0 n (%)
  Muscle twitching, subjects with event: 0 n (%)
  Musculoskeletal and connective tissue disorders, number of occurrences: 1 E
  Musculoskeletal and connective tissue disorders, subjects with event: 1 (2.2%) n (%)
  Nasal congestion, number of occurrences: 10 E
  Nasal congestion, subjects with event: 10 (21.7%) n (%)
  Nasal discomfort, number of occurrences: 14 E
  Nasal discomfort, subjects with event: 13 (28.3%) n (%)
  Nasal dryness, number of occurrences: 1 E
  Nasal dryness, subjects with event: 1 (2.2%) n (%)
  Nausea, number of occurrences: 2 E
  Nausea, subjects with event: 2 (4.3%) n (%)
  Neck pain, subjects with event: 0 n (%)
  Nervous system disorders, number of occurrences: 12 E
  Nervous system disorders, subjects with event: 11 (23.9%) n (%)
  Obsessive-compulsive disorder, subjects with event: 0 n (%)
  Palpitations, number of occurrences: 2 E
  Palpitations, subjects with event: 2 (4.3%) n (%)
  Peripheral swelling, subjects with event: 0 n (%)
  Pharyngeal hypoaesthesia (numbness of throat), subjects with event: 0 n (%)
  Pharyngitis, subjects with event: 0 n (%)
  Phlebitis superficial, subjects with event: 0 n (%)
  Phonophobia (fear of loud noises), subjects with event: 0 n (%)
  Photophobia, subjects with event: 0 n (%)
  Psychiatric disorders, number of occurrences: 19 E
  Psychiatric disorders, subjects with event: 13 (28.3%) n (%)
  Pyrexia, subjects with event: 0 n (%)
  Reproductive system and breast disorders, subjects with event: 0 n (%)
  Respiratory, thoracic and mediastinal disorders, number of occurrences: 42 E
  Respiratory, thoracic and mediastinal disorders, subjects with event: 25 (54.3%) n (%)
  Restlessness, subjects with event: 0 n (%)
  Rhinorrhoea (runny nose), number of occurrences: 4 E
  Rhinorrhoea (runny nose), subjects with event: 4 (8.7%) n (%)
  Sinus tachycardia, subjects with event: 0 n (%)
  Skin and subcutaneous tissue disorders, number of occurrences: 4 E
  Skin and subcutaneous tissue disorders, subjects with event: 4 (8.7%) n (%)
  Skin erosion, number of occurrences: 1 E
  Skin erosion, subjects with event: 1 (2.2%) n (%)
  Sneezing, number of occurrences: 1 E
  Sneezing, subjects with event: 1 (2.2%) n (%)
  Somnolence, number of occurrences: 1 E
  Somnolence, subjects with event: 1 (2.2%) n (%)
  Tachycardia, subjects with event: 0 n (%)
  Testis discomfort, subjects with event: 0 n (%)
  Throat irritation, number of occurrences: 4 E
  Throat irritation, subjects with event: 3 (6.5%) n (%)
  Upper-airway cough syndrome, number of occurrences: 2 E
  Upper-airway cough syndrome, subjects with event: 2 (4.3%) n (%)
  Vascular disorders, subjects with event: 0 n (%)
  Ventricular extrasystoles, subjects with event: 0 n (%)
  Vessel puncture site bruise, subjects with event: 0 n (%)
  Vessel puncture site pain, subjects with event: 0 n (%)
  Visual impairment, subjects with event: 0 n (%)
  Vomiting, subjects with event: 0 n (%)
